Laboratory results taken from US9474790B2, “Stable, protracted GLP-1/glucagon receptor co-agonists for medical use” (Novo Nordisk A/S, priority 2013, dated 2016).
Numbered stars: 1 amine (or outer) side, 2 acyl side, 3 side chain; on linkers, the order of the positions; unused ones are H or OH. Bridge positions count the residues as written; N and C are the ends. Square brackets hold non-standard residues; d marks the D form. Side chains are listed from the residue outwards. Peptide text beside a SMILES is read from it. I, II: the chains in the order shown. * marks the point of attachment. C18 diacid = O=C(O)CCCCCCCCCCCCCCCCC(=O)*; γGlu = O=C(O)[C@H](CCC(=O)[*:2])N[*:1]; Ac4c = NC1(C(=O)O)CCC1; AEEA = NCCOCCOCC(=O)O; Aib = CC(C)(N)C(=O)O

Assay: Thioflavin T (ThT) fibrillation assay for physical stability
Type: physicochemical
Settings: 250 μM in 10 mM HEPES buffer, pH 7.5, 37° C., shaking 960 rpm
How it was run: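 Fibrillation was followed by ThT (1 μM) fluorescence every 20 min, 444/485 nm, for 250 μM peptide in 10 mM HEPES pH 7.5 shaken at 960 rpm, 37° C. Lag time (t0−2τ) and apparent rate constant (1/τ) come from a sigmoidal fit. Recovery is % of initial concentration remaining soluble after centrifugation and filtration (RP-HPLC).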

Row | THT assay Lag time (Ex. 76) [h] | Structure (SMILES)
1 | 45 | CC(C)C[C@H](NC(=O)[C@H](Cc1ccc(O)cc1)NC(=O)[C@H](CCCCN)NC(=O)[C@H](CO)NC(=O)[C@H](CC(C)C)NC(=O)[C@H](CC(=O)O)NC(=O)[C@H](CO)NC(=O)[C@@H](NC(=O)[C@H](Cc1ccccc1)NC(=O)[C@@H](NC(=O)CNC(=O)[C@H](CCC(N)=O)NC(=O)C(C)(C)NC(=O)[C@@H](N)Cc1c[nH]cn1)[C@@H](C)O)[C@@H](C)O)C(=O)N[C@@H](CC(=O)O)C(=O)N[C@@H](CO)C(=O)N[C@@H](CCCNC(=N)N)C(=O)N[C@@H](CCCNC(=N)N)C(=O)N[C@@H](C)C(=O)N[C@@H](CCCNC(=N)N)C(=O)N[C@@H](CCC(=O)O)C(=O)N[C@@H](Cc1ccccc1)C(=O)N[C@H](C(=O)N[C@@H](CCC(N)=O)C(=O)N[C@@H](Cc1c[nH]c2ccccc12)C(=O)N[C@@H](CC(C)C)C(=O)N[C@@H](CC(C)C)C(=O)N[C@@H](CCCCNC(=O)CC[C@H](NC(=O)CC[C@H](NC(=O)COCCOCCNC(=O)COCCOCCNC(=O)CC[C@H](NC(=O)CCCCCCCCCCCCCCCCC(=O)O)C(=O)O)C(=O)O)C(=O)O)C(=O)N[C@H](C(N)=O)[C@@H](C)O)C(C)C [Example 56, N^ε28-[(4S)-4-carboxy-4-[[(4S)-4-carboxy-4-[[2-[2-[2-[[2-[2-[2-[[(4S)-4-carboxy-4-(17-carboxyheptadecanoylamino)butanoyl]amino]ethoxy]ethoxy]acetyl]amino]ethoxy]ethoxy]acetyl]amino]butanoyl]amino]butanoyl]-[Aib2,Leu10,Arg20,Glu21,Leu27,Lys28]-Glucagon amide] (H-H[Aib]QGTFTSDLSKYLDSRRAREFVQWLLK([γGlu-γGlu-AEEA-AEEA-γGlu-C18 diacid])T-NH2)
2 | 45 | CC(C)C[C@H](NC(=O)[C@H](Cc1ccc(O)cc1)NC(=O)[C@H](CCCCN)NC(=O)[C@H](CO)NC(=O)[C@H](CC(C)C)NC(=O)[C@H](CC(=O)O)NC(=O)[C@H](CO)NC(=O)[C@@H](NC(=O)[C@H](Cc1ccccc1)NC(=O)[C@@H](NC(=O)CNC(=O)[C@H](Cc1c[nH]cn1)NC(=O)C(C)(C)NC(=O)[C@@H](N)Cc1c[nH]cn1)[C@@H](C)O)[C@@H](C)O)C(=O)N[C@@H](CCC(=O)O)C(=O)N[C@@H](CO)C(=O)N[C@@H](CCCNC(=N)N)C(=O)N[C@@H](CCCNC(=N)N)C(=O)N[C@@H](C)C(=O)N[C@@H](CCCNC(=N)N)C(=O)N[C@@H](CCC(=O)O)C(=O)N[C@@H](Cc1ccccc1)C(=O)N[C@H](C(=O)N[C@@H](CCC(N)=O)C(=O)N[C@@H](Cc1c[nH]c2ccccc12)C(=O)N[C@@H](CC(C)C)C(=O)N[C@@H](CC(C)C)C(=O)N[C@@H](CCCCNC(=O)CC[C@H](NC(=O)CC[C@H](NC(=O)COCCOCCNC(=O)COCCOCCNC(=O)CC[C@H](NC(=O)CCCCCCCCCCCCCCCCC(=O)O)C(=O)O)C(=O)O)C(=O)O)C(=O)N[C@H](C(N)=O)[C@@H](C)O)C(C)C [Example 33, N^ε28-[(4S)-4-carboxy-4-[[(4S)-4-carboxy-4-[[2-[2-[2-[[2-[2-[2-[[(4S)-4-carboxy-4-(17-carboxyheptadecanoylamino)butanoyl]amino]ethoxy]ethoxy]acetyl]amino]ethoxy]ethoxy]acetyl]amino]butanoyl]amino]butanoyl]-[Aib2,His3,Leu10,Glu15,Arg20,Glu21,Leu27,Lys28]-Glucagon amide] (H-H[Aib]HGTFTSDLSKYLESRRAREFVQWLLK([γGlu-γGlu-AEEA-AEEA-γGlu-C18 diacid])T-NH2; N-terminus assumed)

Further lines, the compound ahead of its results:

Row | Structure (SMILES) | THT assay Lag time (Ex. 76) [h]
3 | CC(C)C[C@H](NC(=O)[C@H](Cc1ccc(O)cc1)NC(=O)[C@H](CCCCN)NC(=O)[C@H](CO)NC(=O)[C@H](CC(C)C)NC(=O)[C@H](CC(=O)O)NC(=O)[C@H](CO)NC(=O)[C@@H](NC(=O)[C@H](Cc1ccccc1)NC(=O)[C@@H](NC(=O)CNC(=O)[C@H](CCC(N)=O)NC(=O)C1(NC(=O)[C@@H](N)Cc2c[nH]cn2)CCC1)[C@@H](C)O)[C@@H](C)O)C(=O)N[C@@H](CCC(=O)O)C(=O)N[C@@H](CCC(=O)O)C(=O)N[C@@H](CCCNC(=N)N)C(=O)N[C@@H](CCCNC(=N)N)C(=O)N[C@@H](C)C(=O)N[C@@H](CCCNC(=N)N)C(=O)N[C@@H](CC(=O)O)C(=O)N[C@@H](Cc1ccccc1)C(=O)N[C@H](C(=O)N[C@@H](CCC(N)=O)C(=O)N[C@@H](Cc1c[nH]c2ccccc12)C(=O)N[C@@H](CC(C)C)C(=O)N[C@@H](CC(C)C)C(=O)N[C@@H](CCCCNC(=O)CNC(=O)[C@H](CO)NC(=O)[C@H](CCC(=O)O)NC(=O)CNC(=O)[C@H](CO)NC(=O)CC[C@H](NC(=O)CC[C@H](NC(=O)CCCCCCCCCCCCCCCCC(=O)O)C(=O)O)C(=O)O)C(=O)N[C@H](C(N)=O)[C@@H](C)O)C(C)C [Example 16, N^ε28-[2-[[(2S)-2-[[(2S)-4-carboxy-2-[[2-[[(2S)-2-[[(4S)-4-carboxy-4-[[(4S)-4-carboxy-4-(17-carboxyheptadecanoylamino)butanoyl]amino]butanoyl]amino]-3-hydroxypropanoyl]amino]acetyl]amino]butanoyl]amino]-3-hydroxypropanoyl]amino]acetyl]-[Acb2,Leu10,Glu15,Glu16,Arg20,Leu27,Lys28]-Glucagon amide] (I: H-H[Ac4c]QGTFTSDLSKYLEERRARDFVQWLLKT-NH2 / II: {C18 diacid-γGlu-γGlu}-SGESG; amide I:28-II:C; N-terminus assumed) | 45
4 | CC(C)C[C@H](NC(=O)[C@H](CC(=O)O)NC(=O)[C@H](CC(C)C)NC(=O)[C@H](Cc1ccc(O)cc1)NC(=O)[C@H](CCCCN)NC(=O)[C@H](CO)NC(=O)[C@H](CC(C)C)NC(=O)[C@H](CC(=O)O)NC(=O)[C@H](CO)NC(=O)[C@@H](NC(=O)[C@H](Cc1ccccc1)NC(=O)[C@@H](NC(=O)CNC(=O)[C@H](CCC(N)=O)NC(=O)C(C)(C)NC(=O)[C@@H](N)Cc1c[nH]cn1)[C@@H](C)O)[C@@H](C)O)C(=O)N[C@@H](CCCNC(=N)N)C(=O)N[C@@H](CCCNC(=N)N)C(=O)N[C@@H](C)C(=O)N[C@@H](CCCNC(=N)N)C(=O)N[C@@H](CC(=O)O)C(=O)N[C@@H](Cc1ccccc1)C(=O)N[C@H](C(=O)N[C@@H](CCC(N)=O)C(=O)N[C@@H](Cc1c[nH]c2ccccc12)C(=O)N[C@@H](CC(C)C)C(=O)N[C@@H](CC(C)C)C(=O)N[C@@H](CCCCNC(=O)CNC(=O)[C@H](CO)NC(=O)[C@H](CCC(=O)O)NC(=O)[C@H](CO)NC(=O)CC[C@H](NC(=O)CC[C@H](NC(=O)CCCCCCCCCCCCCCCCC(=O)O)C(=O)O)C(=O)O)C(=O)N[C@H](C(N)=O)[C@@H](C)O)C(C)C [Example 55, N^ε28-[2-[[(2S)-2-[[(2S)-4-carboxy-2-[[(2S)-2-[[(4S)-4-carboxy-4-[[(4S)-4-carboxy-4-(17-carboxyheptadecanoylamino)butanoyl]amino]butanoyl]amino]-3-hydroxypropanoyl]amino]butanoyl]amino]-3-hydroxypropanoyl]amino]acetyl]-[Aib2,Leu10,Leu16,Arg20,Leu27,Lys28]-Glucagon amide] (H-H[Aib]QGTFTSDLSKYLDLRRARDFVQWLLK([Gly-Ser-Glu-Ser-γGlu-γGlu-C18 diacid])T-NH2; N-terminus assumed) | 45
5 | CC(C)C[C@H](NC(=O)[C@H](CC(=O)O)NC(=O)[C@H](CC(C)C)NC(=O)[C@H](Cc1ccc(O)cc1)NC(=O)[C@H](CCCCN)NC(=O)[C@H](CO)NC(=O)[C@H](CC(C)C)NC(=O)[C@H](CC(=O)O)NC(=O)[C@H](CO)NC(=O)[C@@H](NC(=O)[C@H](Cc1ccccc1)NC(=O)[C@@H](NC(=O)CNC(=O)[C@H](CCC(N)=O)NC(=O)C1(NC(=O)[C@@H](N)Cc2c[nH]cn2)CCC1)[C@@H](C)O)[C@@H](C)O)C(=O)N[C@@H](CCCNC(=N)N)C(=O)N[C@@H](CCCNC(=N)N)C(=O)N[C@@H](C)C(=O)N[C@@H](CCCNC(=N)N)C(=O)N[C@@H](CC(=O)O)C(=O)N[C@@H](Cc1ccccc1)C(=O)N[C@H](C(=O)N[C@@H](CCC(N)=O)C(=O)N[C@@H](Cc1c[nH]c2ccccc12)C(=O)N[C@@H](CC(C)C)C(=O)N[C@@H](CC(C)C)C(=O)N[C@@H](CCCCNC(=O)CC[C@H](NC(=O)CC[C@H](NC(=O)COCCOCCNC(=O)COCCOCCNC(=O)CC[C@H](NC(=O)CC[C@H](NC(=O)CCCCCCCCCCCCCCCCC(=O)O)C(=O)O)C(=O)O)C(=O)O)C(=O)O)C(=O)N[C@H](C(N)=O)[C@@H](C)O)C(C)C [Example 45, N^ε28-[(4S)-4-carboxy-4-[[(4S)-4-carboxy-4-[[2-[2-[2-[[2-[2-[2-[[(4S)-4-carboxy-4-[[(4S)-4-carboxy-4-(17-carboxyheptadecanoylamino)butanoyl]amino]butanoyl]amino]ethoxy]ethoxy]acetyl]amino]ethoxy]ethoxy]acetyl]amino]butanoyl]amino]butanoyl]-[Acb2,Leu10,Leu16,Arg20,Leu27,Lys28]-Glucagon amide] (H-H[Ac4c]QGTFTSDLSKYLDLRRARDFVQWLLK([γGlu-γGlu-AEEA-AEEA-γGlu-γGlu-C18 diacid])T-NH2; N-terminus assumed) | 45
